According to ChEMBL document CHEMBL5356983, “Design and optimization of piperlongumine analogs as potent senolytics” (Bioorg Med Chem Lett, 2024):

Assays:
[1] = Senolytic activity in non-senescent human WI-38 cells by PI staining based flow cytometry analysis; type: toxicity, cell-based; settings: non-senescent WI-38 cells
[2] = Selectivity ratio IC50 for non-senescent human WI-38 cells to IC50 for ionizing radiation induced human WI-38 senescent cells; type: functional
WI-38 = assay: Senolytic activity in ionizing radiation induced human WI-38 senescent cells by PI staining based flow cytometry analysis; type: functional, cell-based

In the case of `COc1cc(/C=C/C(=O)N2CC=CCC2=O)cc(OC)c1OC`, the IC50 [1] is reported as > 80 µM, the “Ratio IC50” value [2] is reported as >2.9 and the IC50 (WI-38) is reported as 27.5 µM.

With `COc1cc(/C=C/C(=O)N2CCCC=C(Cl)C2=O)cc(OC)c1OC` the IC50 [1] was 1.7 µM, the “Ratio IC50” value [2] was 3.7 and the IC50 (WI-38) was 0.45 µM.

With `COc1ccc(/C=C/C(=O)N2CCCC=C(Br)C2=O)cc1` the IC50 [1] was 5.8 µM, the “Ratio IC50” value [2] was 4.4 and the IC50 (WI-38) was 1.3 µM.

With `COc1cc(/C=C/C(=O)N2CCC=C(F)C2=O)cc(OC)c1OC` the IC50 [1] was 12.1 µM, the “Ratio IC50” value [2] was 0.8 and the IC50 (WI-38) was 15.3 µM.

With `COc1ccc(/C=C/C(=O)N2CCCC=C(Cl)C2=O)cc1` the IC50 [1] was 1.5 µM, the “Ratio IC50” value [2] was 9.3 and the IC50 (WI-38) was 0.16 µM.

In the case of `CN(C)CCOc1ccc(/C=C/C(=O)N2CCC=C(Br)C2=O)cc1`, the IC50 [1] is reported as 4.8 µM, the “Ratio IC50” value [2] is reported as 1.5 and the IC50 (WI-38) is reported as 3.2 µM.

With `COc1cc(/C=C/C(=O)N2CCC=C(Br)C2=O)cc(OC)c1OC` the IC50 [1] was 5.4 µM, the “Ratio IC50” value [2] was 10.4 and the IC50 (WI-38) was 0.52 µM.

For `COc1cc(/C=C/C(=O)N2CCC=C(I)C2=O)cc(OC)c1OC`, the IC50 [1] was 16.3 µM, the “Ratio IC50” value [2] was 7.1 and the IC50 (WI-38) was 2.3 µM.

With `COc1cc(/C=C/C(=O)N2CCC=C(Cl)C2=O)cc(OC)c1OC` the IC50 [1] was 5.3 µM, the “Ratio IC50” value [2] was 8.1 and the IC50 (WI-38) was 0.65 µM.

For `COc1cc(/C=C/C(=O)N2CCC=C(C(F)(F)F)C2=O)cc(OC)c1OC`, the IC50 [1] was > 40 µM and the IC50 (WI-38) was > 40 µM.

With `COc1cc(/C=C/C(=O)N2C=CC=CCC2=O)cc(OC)c1OC` the IC50 [1] was 26.7 µM, the “Ratio IC50” value [2] was 1.3 and the IC50 (WI-38) was 21.1 µM.

In the case of `O=C(C#Cc1ccccc1)N1CCC=CC1=O`, the IC50 [1] is reported as 1.5 µM, the “Ratio IC50” value [2] is reported as 1.6 and the IC50 (WI-38) is reported as 0.93 µM.

With `CN(C)CCOc1ccc(/C=C/C(=O)N2CCC=CC2=O)cc1` the IC50 [1] was 19.5 µM, the “Ratio IC50” value [2] was 13.3 and the IC50 (WI-38) was 1.5 µM.

In the case of `COc1ccc(/C=C/C(=O)N2CCC=C(Cl)C2=O)cc1`, the IC50 [1] is reported as 0.35 µM, the “Ratio IC50” value [2] is reported as 0.7 and the IC50 (WI-38) is reported as 0.51 µM.

For `CN(C)C/C=C/C(=O)N1CCC=CC1=O`, the IC50 [1] was 9.7 µM, the “Ratio IC50” value [2] was 3.5 and the IC50 (WI-38) was 2.8 µM.

For `COc1cc(/C=C/C(=O)N2CCC(=O)/C(=C/c3ccc(F)cc3)C2)cc(OC)c1OC`, the IC50 [1] was 53.8 µM, the “Ratio IC50” value [2] was 3.9 and the IC50 (WI-38) was 14 µM.

With `COc1cc(/C=C/C(=O)N2CCC(=O)CC2)cc(OC)c1OC` the IC50 [1] was > 40 µM and the IC50 (WI-38) was > 40 µM.

For `COc1cc(/C=C/C(=O)N2CCCC=C(Br)C2=O)cc(OC)c1OC`, the IC50 [1] was 3.6 µM, the “Ratio IC50” value [2] was 6.5 and the IC50 (WI-38) was 0.56 µM.

With `COc1ccc(/C=C/C(=O)N2CCC=C(Br)C2=O)cc1` the IC50 [1] was 1.1 µM, the “Ratio IC50” value [2] was 1.8 and the IC50 (WI-38) was 0.63 µM.

For `COc1cc(/C=C/C(=O)N2OCC=CC2=O)cc(OC)c1OC`, the IC50 [1] was 48.9 µM, the “Ratio IC50” value [2] was 6 and the IC50 (WI-38) was 8.1 µM.

In the case of `CN(C)CCOc1ccc(/C=C/C(=O)N2CCCC=C(Cl)C2=O)cc1`, the IC50 [1] is reported as 3 µM, the “Ratio IC50” value [2] is reported as 1.3 and the IC50 (WI-38) is reported as 2.4 µM.

With `CN(C)CCOc1ccc(/C=C/C(=O)N2CCC=C(Cl)C2=O)cc1` the IC50 [1] was 4.4 µM, the “Ratio IC50” value [2] was 1.5 and the IC50 (WI-38) was 2.9 µM.

For `COc1cc(/C=C/C(=O)N2CCC(N(C)C)CC2=O)cc(OC)c1OC` (stereo unspecified), the IC50 [1] was 34.6 µM, the “Ratio IC50” value [2] was 3.4 and the IC50 (WI-38) was 10.2 µM.

With `COc1cc(/C=C/C(=O)N2CCC(=O)/C(=C/c3ccc(F)cc3F)C2)cc(OC)c1OC` the IC50 [1] was 62.5 µM, the “Ratio IC50” value [2] was 4.2 and the IC50 (WI-38) was 14.7 µM.

For `COc1cc(/C=C/C(=O)N2CC(O)C=CC2=O)cc(OC)c1OC` (stereo unspecified), the IC50 [1] was 11.3 µM, the “Ratio IC50” value [2] was 1.5 and the IC50 (WI-38) was 7.4 µM.

With `COc1cc(C#CC(=O)N2CCC=CC2=O)cc(OC)c1OC` the IC50 [1] was 13.9 µM, the “Ratio IC50” value [2] was 3.2 and the IC50 (WI-38) was 4.4 µM.

With `CN(C)CCOc1ccc(/C=C/C(=O)N2CCCC=C(Br)C2=O)cc1` the IC50 [1] was 3.4 µM, the “Ratio IC50” value [2] was 1.2 and the IC50 (WI-38) was 2.9 µM.

With `COc1cc(/C=C/C(=O)N2CCC=CC2=O)cc(OC)c1OC` [PIPLARTINE] the IC50 [1] was 20.3 µM and the “Ratio IC50” value [2] was 2.5.
